Data as given in patent US12558363B2, “Compositions for clinical complications associated to devices implanted in the urinary tract” (Devicare SL, priority 2019, dated 2026).
“And” between values parts separate entries of the source, which are not always exact repeats. Identical values can stand only once. “Also recorded” adds a separate entry of the source.

Legend:
[1] = system: Mucin; experiment: Conditioning film generation: accumulated protein on medical device fragment in continuous flow artificial urine system (Lowry); conditions: for Quantity of accumulated protein (Mucin), Experiment 1 / Quantity of accumulated protein (Mucin), Experiment 2: 48 hours irrigation of Tygon fragment, pH 6.5; for Quantity of accumulated protein (Mucin), Experiment 1 / Quantity of accumulated protein (Mucin), Experiment 2 / Quantity of accumulated protein (Mucin), Average: NAC 20 mg/L and/or phytate 2 ppm; for Quantity of accumulated protein (Mucin), Average: average of Experiments 1 and 2, 48 hours; for Reduction in the precipitation of protein, compounds tested individually: phytate 2 ppm or NAC 20 mg/L alone, compared with the combination
[2] = system: Pseudomonas aeruginosa PAO1; type: cell-based; conditions: 24 h
[3] = Struvite crystal formation/adhesion on catheter portions in artificial urine; conditions: for Struvite crystals formation ratio (crystals without phytate divided by crystals with phytate) / # struvite crystals with phytate (2 ppm): phytate 2 ppm; for # struvite crystals with phytate (2 ppm): pH 7.2, 37° C., not washed catheter portion

Structure (SMILES) | Quantity of accumulated protein (Mucin), Experiment 1 [1] [mg/L] | Quantity of accumulated protein (Mucin), Experiment 2 [1] [mg/L] | Quantity of accumulated protein (Mucin), Average [1] [mg/L] | Reduction in the precipitation of protein, compounds tested individually [1] | Number of adhered bacteria in the surface of incubated catheters [2] | Struvite crystals adhered in catheters ([3]; 9.28 g/L NH4+, 1 ppm phytate (FIG. 3B)) [crystals] | Struvite crystals adhered in catheters ([3]; 18.56 g/L NH4+, 1 ppm phytate (FIG. 3D)) [crystals] | Size of struvite crystals formed (electron microscopy) ([3]; 24 h) | Struvite crystals formation ratio (crystals without phytate divided by crystals with phytate) ([3]; time of reaction 12 hours) | # struvite crystals with phytate (2 ppm) ([3]; time of reaction 12 hours) | Struvite crystals formation ratio (crystals without phytate divided by crystals with phytate) ([3]; time of reaction 24 hours) | # struvite crystals with phytate (2 ppm) ([3]; time of reaction 24 hours)
CC(=O)N[C@@H](CS)C(=O)O [NAC, N-acetylcysteine, reference compound] | 30.0 | 66.5 | 48.3 | a reduction in the precipitation was observed but of less intensity |  |  |  |  |  |  |  | 
O=P(O)(O)O[C@H]1[C@H](OP(=O)(O)O)[C@@H](OP(=O)(O)O)[C@H](OP(=O)(O)O)[C@@H](OP(=O)(O)O)[C@H]1OP(=O)(O)O [phytate, myo-inositol-hexaphosphate] | 33.0 | 57.5 | 45.3 | a reduction in the precipitation was observed but of less intensity | significative decrease; also recorded: lower | 2 | 5 | smaller than the crystals formed in absence of phytate | 1.45 | 20 | 3.85 and 2.4 | 6.5 and 5
